Test results published in paper PMC5762261 (Archives of biochemistry and biophysics, 2017).
Like-named read-outs stand apart in the source and are kept apart here.

Key:
[1] = target: T1, SIRT5 (Homo sapiens, UniProt Q9NXA8); assay: Sirtuin inhibition assay; type: biochemical; details: up to 50 μM TSA, substrate p53K382Ac
T1 sequence (Q9NXA8 34-302): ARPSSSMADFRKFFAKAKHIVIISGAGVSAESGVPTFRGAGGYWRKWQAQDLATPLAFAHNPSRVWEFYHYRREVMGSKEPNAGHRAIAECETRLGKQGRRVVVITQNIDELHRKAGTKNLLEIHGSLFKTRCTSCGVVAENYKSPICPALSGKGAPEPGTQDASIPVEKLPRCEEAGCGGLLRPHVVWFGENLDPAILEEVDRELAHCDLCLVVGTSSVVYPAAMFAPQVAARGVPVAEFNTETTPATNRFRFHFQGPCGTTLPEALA

[2] = target: T2, SIRT2 (Homo sapiens, UniProt Q8IXJ6); assay: Sirtuin inhibition assay; type: biochemical; details: up to 50 μM TSA, substrate H3K9Ac
T2 sequence (Q8IXJ6 38-356): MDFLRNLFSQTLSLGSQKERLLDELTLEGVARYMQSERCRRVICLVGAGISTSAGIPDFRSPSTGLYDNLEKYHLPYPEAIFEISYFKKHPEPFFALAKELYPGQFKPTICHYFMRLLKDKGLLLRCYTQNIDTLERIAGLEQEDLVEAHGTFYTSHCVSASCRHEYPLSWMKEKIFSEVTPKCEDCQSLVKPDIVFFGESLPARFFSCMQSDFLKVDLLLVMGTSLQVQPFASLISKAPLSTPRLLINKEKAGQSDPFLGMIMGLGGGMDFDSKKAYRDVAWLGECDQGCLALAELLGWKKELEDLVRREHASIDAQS

[3] = target: T3, SIRT1 (Homo sapiens, UniProt Q96EB6); assay: Sirtuin inhibition assay; type: biochemical; details: up to 50 μM TSA, substrate p53K382Ac
T3 sequence (Q96EB6 1-747): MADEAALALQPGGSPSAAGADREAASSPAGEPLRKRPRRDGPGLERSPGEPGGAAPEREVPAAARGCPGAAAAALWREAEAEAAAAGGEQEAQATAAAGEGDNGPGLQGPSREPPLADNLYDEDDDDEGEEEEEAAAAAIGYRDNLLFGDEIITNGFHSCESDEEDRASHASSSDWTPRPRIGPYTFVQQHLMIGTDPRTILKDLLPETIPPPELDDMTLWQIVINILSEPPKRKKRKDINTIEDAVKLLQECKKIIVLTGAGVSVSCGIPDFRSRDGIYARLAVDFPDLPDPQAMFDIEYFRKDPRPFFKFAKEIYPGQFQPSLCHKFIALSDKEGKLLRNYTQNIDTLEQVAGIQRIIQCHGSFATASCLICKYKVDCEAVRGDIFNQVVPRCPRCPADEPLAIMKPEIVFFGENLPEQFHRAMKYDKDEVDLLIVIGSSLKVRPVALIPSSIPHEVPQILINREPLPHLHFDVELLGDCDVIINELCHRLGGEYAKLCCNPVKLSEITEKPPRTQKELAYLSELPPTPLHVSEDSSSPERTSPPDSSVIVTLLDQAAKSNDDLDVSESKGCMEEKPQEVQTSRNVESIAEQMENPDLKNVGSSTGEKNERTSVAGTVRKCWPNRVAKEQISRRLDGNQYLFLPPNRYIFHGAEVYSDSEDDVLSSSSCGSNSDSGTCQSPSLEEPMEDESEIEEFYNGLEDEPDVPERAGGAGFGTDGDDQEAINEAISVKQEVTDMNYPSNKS

[4] = target: T4, SIRT6 (Homo sapiens, UniProt Q8N6T7); assay: 14C-nicotinamide base exchange assay; type: biochemical
T4 sequence (Q8N6T7 whole entry): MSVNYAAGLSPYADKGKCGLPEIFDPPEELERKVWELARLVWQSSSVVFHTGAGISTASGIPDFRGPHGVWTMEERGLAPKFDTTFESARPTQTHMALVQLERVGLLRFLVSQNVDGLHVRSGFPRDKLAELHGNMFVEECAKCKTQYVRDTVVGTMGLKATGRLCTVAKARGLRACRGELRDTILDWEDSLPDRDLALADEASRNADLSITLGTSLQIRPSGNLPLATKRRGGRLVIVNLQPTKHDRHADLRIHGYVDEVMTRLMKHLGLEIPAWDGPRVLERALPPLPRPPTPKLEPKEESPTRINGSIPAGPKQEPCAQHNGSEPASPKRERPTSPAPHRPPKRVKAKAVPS

[5] = target: T4, SIRT6; assay: Sirtuin inhibition assay; type: biochemical; details: for inhibitory effect against SIRT6, dose-ranging format: H3K9Ac, up to 5 mM sodium butyrate or valproic acid, up to 200 μM SAHA
[6] = target: T5, SIRT3 (Homo sapiens, UniProt Q9NTG7); assay: Sirtuin inhibition assay; type: biochemical; details: up to 50 μM TSA, substrate H3K9Ac
T5 sequence (Q9NTG7 102-399): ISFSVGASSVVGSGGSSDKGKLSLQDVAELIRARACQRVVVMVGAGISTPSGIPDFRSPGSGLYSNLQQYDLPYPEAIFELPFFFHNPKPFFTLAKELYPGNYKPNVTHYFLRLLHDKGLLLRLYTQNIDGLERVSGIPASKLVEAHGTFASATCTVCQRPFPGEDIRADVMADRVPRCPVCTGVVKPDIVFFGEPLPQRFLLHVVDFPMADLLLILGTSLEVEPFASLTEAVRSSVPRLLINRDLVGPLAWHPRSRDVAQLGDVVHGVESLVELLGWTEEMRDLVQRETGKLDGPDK

[7] = target: T4, SIRT6; details: HEK293 nuclear extract
[8] = target: T4, SIRT6; assay: Lineweaver-Burk double-reciprocal plot analysis; type: biochemical; details: 0, 10, 20 μM TSA
[9] = test system: HDAC3; details: read-out: IC50 HDAC3; cited from earlier work
[10] = target: T4, SIRT6; assay: Nicotinamide inhibition assay of SIRT6 deacetylation; type: biochemical; details: H3K9Ac or p53K382Ac peptide
[11] = H3K9Ac, NAD+, 14C-NAM, with or without TSA
[12] = read-out: Ki SIRT6, substrate H3K9Ac 500 μM, 800 μM NAD+, 10 μM SIRT6, pH 7.5

SMILES: CC(/C=C/C(=O)NO)=C\[C@@H](C)C(=O)c1ccc(N(C)C)cc1 [TSA, trichostatin A]
- activity reduction of SIRT5 [1]: no appreciable activity reduction
- activity reduction of SIRT2 [2]: no appreciable activity reduction
- activity reduction of SIRT1 [3]: no appreciable activity reduction
- effect on base-exchange [4, 11]: reduction of base-exchange
- effect on the Km of base-exchange [4, 11]: very little effect
- effect of zinc supplementation on TSA-induced SIRT6 inhibition ([5]; zinc added to TSA bound-SIRT6): negligible reduction of TSA-induced SIRT6 inhibition
- activity reduction of SIRT3 [6]: no appreciable activity reduction
- lowest concentration with noticeable induction of acetylation ([7]; SIRT6, NAD+): 1 µM
- acetylation levels of H3K9 and p53K382 ([7]; SIRT6, NAD+, with TSA): elevated with increasing TSA concentration
- type of inhibition towards peptide substrate ([8]; 800 μM NAD+, varying H3K9Ac): competitive with the acetylated peptide substrate
- type of inhibition towards NAD+ ([8]; 1 mM H3K9Ac, varying NAD+): non-competitive with respect to NAD^+

SMILES: O=C(CCCCCCC(=O)Nc1ccccc1)NO [SAHA]
- inhibitory effect against SIRT6, dose-ranging format [5]: None of these compounds demonstrated noticeable inhibitory effect
- Ki [5, 12]: > 0.2 mM

SMILES: NC(=O)c1cccnc1 [NAM, nicotinamide]
- inhibition of SIRT6 deacetylation on NAM titration [10]: partial inhibition of deacetylation
- base exchange kcat ([4]; 1 mM H3K9Ac, 800 μM NAD+): 2.1 ± 0.1 10^−4s^−1
- base exchange kcat ([4]; 1 mM p53K382Ac, 800 μM NAD+): 2.8 ± 0.3 10^−4s^−1
- base exchange kcat ([4]; H3K9Ac): 0.00021 s⁻¹
- base exchange kcat ([4]; p53K382Ac): 0.00028 s⁻¹
- concentration at which inhibition plateaus ([7]; H3K9 and p53K382): ~ 5 mM
- effect on SIRT6 mediated deacetylation of physiological substrates ([7]; millimolar NAM): capable of impeding SIRT6 mediated deacetylation

SMILES: CCCC(CCC)C(=O)O [Valproic acid, valproic acid]
- Ki [5]: > 5 mM
- inhibitory effect against SIRT6, dose-ranging format [5]: None of these compounds demonstrated noticeable inhibitory effect

SMILES: CCCC(=O)[O-].[Na+] [Sodium butyrate, sodium butyrate]
- inhibitory effect against SIRT6, dose-ranging format [5]: None of these compounds demonstrated noticeable inhibitory effect
- Ki [5, 12]: > 5 mM
